From US20080194646A1, “Methods For Avoiding Edema in the Treatment of Metabolic, Inflammatory, and Cardiovascular Disorders” (priority 2005, published 2008)

Experiments:
[1] = system: C57BL/6j ob/ob Mice; experiment: anti-diabetic activity in C57BL/6j ob/ob mice (Example 20); format: in vivo; conditions: oral gavage once a day for 1-4 days
Description: The anti-diabetic activities of the compounds were evaluated in the C57BL/6j ob/ob Mice model. Male, 7-9 weeks old, C57BL/6J ob/ob mice were purchased from The Jackson Laboratory (Bar Harbor, Me., USA). Animals were housed (4-5 mice/cage) under standard laboratory conditions at 22±3° C. temperature and 50±20% relative humidity, and were maintained on a diet of Purina rodent chow and water ad libitum. Prior to treatment, blood was collected from the tail vein of each animal. Mice that had non-fasting plasma glucose levels between 250 and 500 mg/dl were used. Each treatment group consisted of 8-10 mice that were distributed so that the mean glucose levels were equivalent in each group at the start of the study. Mice were dosed orally by gavage once a day for 1-4 days with vehicle and one or more dose of test compound at a dose ranging from 5 to 125 mg/kg. Compounds were delivered in a liquid formulation containing 5% (v/v) dimethyl sulfoxide (DMSO), 1% (v/v) Tween 80® and 0.9% (w/v) methylcellulose. The gavage volume was 10 ml/kg. […] Food intake and body weight were measured daily. Plasma glucose concentrations were determined colorimetrically using a commercial glucose oxidase method (Sigma Chemical Co, St. Louis, Mo., USA). Significant difference between groups (comparing drug-treated to vehicle-treated) was evaluated using the Student unpaired t-test. Table 1 provides the relative potency of some selected compounds of the invention.

[2] = system: C57BL/6j ob/ob Mice; experiment: glucose lowering activity of halofenate analogs in ob/ob mice (Example 14); format: in vivo; conditions: for plasma glucose concentrations vs vehicle: Student unpaired t-test; for Glucose 6 hours / Glucose 30 hours / Glucose 54 hours: plasma glucose; for Predose Glucose: baseline before dosing
Description: Male, 8-9 weeks old, C57BL/6J ob/ob mice were purchased from The Jackson Laboratory (Bar Harbor, Me., USA). Animals were housed (4-5 mice/cage) under standard laboratory conditions at 22±3° C. temperature and 50±20% relative humidity, and were maintained on a diet of Purina rodent chow and water ad libitum. Prior to treatment, blood was collected from the tail vein of each animal. Mice that had non-fasting plasma glucose levels between 250 and 500 mg/dl were used. Each treatment group consisted of 8-10 mice that were distributed so that the mean glucose levels were equivalent in each group at the start of the study. Mice were dosed orally by gavage once a day for 1-3 days with either vehicle, (−) halofenic acid, (+) analog 14, 29, 33, 34, 35, 36, 37, or 38 at 125 mg/kg or (−) analog 29, 36, 37 or 38 at 150 mg/kg. Compounds were delivered in a liquid formulation containing 5% (v/v) dimethyl sulfoxide (DMSO), 1% (v/v) tween 80 and 0.9% (w/v) methylcellulose. The gavage volume was 10 ml/kg. Blood samples were taken at 6 hours after the each dose and analyzed for plasma glucose. Food intake and body weight were measured daily. Plasma glucose concentrations were determined colorimetrically using glucose oxidase method (Sigma Chemical Co, St. Louis, Mo., USA). Significant difference between groups (comparing drug-treated to vehicle-treated) was evaluated using the Student unpaired t-test.

[3] = glucose lowering, plasma glucose 6 hours after each dose
[4] = 125 mg/kg oral gavage once a day for 1-3 days
[5] = 125 mg/kg oral gavage once a day
[6] = group later dosed 125 mg/kg orally
[7] = 150 mg/kg oral gavage, single dose
[8] = group later dosed 150 mg/kg orally

| SMILES | Insulin Level compared with vehicle [1] | plasma glucose concentrations vs vehicle [2, 4] | Glucose 6 hours [2, 5] [mg/dL] | Glucose 30 hours [2, 5] [mg/dL] | Glucose 54 hours [2, 5] [mg/dL] | Predose Glucose [2, 6] [mg/dL] | further results |
| --- | --- | --- | --- | --- | --- | --- | --- |
| CC(=O)NCCOC(=O)C(Oc1cccc(C(F)(F)F)c1)c1cccc(C(F)(F)F)c1 (stereo not shown) [Compound 144] | Lower | – | – | – | – | – | – |
| CC(=O)NCCOC(=O)C(Oc1cc(C(F)(F)F)cc(C(F)(F)F)c1)c1ccc(C(F)(F)F)cc1 (stereo not shown) [Compound 143] | Lower | – | – | – | – | – | – |
| O=C(O)C(Oc1ccc(C(F)(F)F)cc1)c1cccc(C(F)(F)F)c1 (stereo not drawn) [(−)−39, (4-trifluoromethyl-phenoxy)-(3-trifluoromethyl-phenyl)-acetic acid] | Lower | – | – | – | – | – | Potency [1, 3]: ++ (effective for glucose lowering at the dose of ≦125 mg/kg) |
| CC(=O)NCCOC(=O)C(Oc1cccc(C(F)(F)F)c1)c1ccc(Br)cc1 (racemic) [(±)Analog 29] | – | significantly lowered plasma glucose concentrations at 6, 30 and 54 hours | 299.7 ± 24.5 | 237.4 ± 14.9 | 293.3 ± 9.7 | 387.1 ± 16.0 | – |
| O=C(O)C(Oc1cccc(C(F)(F)F)c1)c1ccc(C(F)(F)F)cc1 (stereo not shown) [Compound 86] | Lower | – | – | – | – | – | – |
| CC(=O)NCCOC(=O)C(Oc1cccc(C(F)(F)F)c1)c1ccc(F)cc1 (racemic) [(±)Analog 14] | – | significantly lowered plasma glucose concentrations at 6, 30 and 54 hours | 328.9 ± 34.1 | 267.0 ± 21.3 | 293.0 ± 29.4 | 361.0 ± 17.1 | – |
| NC(=O)COC(=O)C(Oc1cccc(C(F)(F)F)c1)c1ccc(Cl)cc1 (racemic) [(±)Analog 37] | – | significantly lowered plasma glucose concentrations at 54 hours | 345.4 ± 19.7 | 312.5 ± 21.7 | 285.1 ± 14.7 | 387.4 ± 18.8 | – |
| CC(=O)NCCOC(=O)C(Oc1ccccc1C(F)(F)F)c1ccc(C(F)(F)F)cc1 (stereo not shown) [Compound 146] | Lower | – | – | – | – | – | – |
| O=C(O)C(Oc1ccc(C(F)(F)F)cc1)c1ccc(C(F)(F)F)cc1 (stereo not shown) [Compound 83] | Lower | – | – | – | – | – | Potency [1, 3]: ++ (effective for glucose lowering at the dose of ≦125 mg/kg) |
| CC(Oc1ccc(C(F)(F)F)cc1)(C(=O)O)c1ccc(C(F)(F)F)cc1 (stereo not shown) [Compound 121, 2-(4-Trifluoromethyl-phenoxy)-2-(4-trifluoromethyl-phenyl)-propionic acid] | Lower | – | – | – | – | – | – |
| NC(=O)COC(=O)C(Oc1cccc(C(F)(F)F)c1)c1ccc(Cl)cc1 (single isomer, unassigned; (-)) [(−)Analog 37] | – | – | – | – | – | – | plasma glucose concentrations vs vehicle [2, 7]: significantly reduced plasma glucose concentrations at 6 hours; Glucose 6 hours [2, 7]: 271.7 ± 22.5 mg/dL; Predose Glucose [2, 8]: 373.4 ± 16.1 mg/dL |
| CC(=O)NCCOC(=O)C(Oc1cccc(C(F)(F)F)c1)c1ccc(Br)cc1 (single isomer, unassigned; (-)) [(−)Analog 29] | – | – | – | – | – | – | plasma glucose concentrations vs vehicle [2, 7]: significantly reduced plasma glucose concentrations at 6 hours; Glucose 6 hours [2, 7]: 333.5 ± 16.1 mg/dL; Predose Glucose [2, 8]: 372.2 ± 17.1 mg/dL |
| CC(=O)NCCOC(=O)C(Oc1ccc(C(F)(F)F)cc1)c1cccc(C(F)(F)F)c1 (stereo not shown) [Compound 136, (4-trifluoromethyl-phenoxy)-(3-trifluoromethyl-phenyl)-acetic acid 2-acetylamino-ethyl ester] | Lower | – | – | – | – | – | – |
| O=C(O)C(Oc1ccc(C(F)(F)F)cc1)c1cccc(C(F)(F)F)c1 (stereo not drawn) [(+)−39, (4-trifluoromethyl-phenoxy)-(3-trifluoromethyl-phenyl)-acetic acid] | – | – | – | – | – | – | minimal effective dose ([1]; Mus musculus, glucose lowering, plasma glucose 6 hours after each dose, read-out: Potency): ≤ 125 mg/kg |
| O=C(O)C(Oc1cc(C(F)(F)F)cc(C(F)(F)F)c1)c1ccc(C(F)(F)F)cc1 (stereo not shown) [Compound 81] | Lower | – | – | – | – | – | – |
| CC(Oc1ccc(C(F)(F)F)cc1)(C(=O)O)c1cccc(C(F)(F)F)c1 (stereo not shown) [Compound 120, 2-(4-trifluoromethyl-phenoxy)-2-(3-trifluoromethyl-phenyl)-propionic acid] | Lower | – | – | – | – | – | – |
| CN(C)CCOC(=O)C(Oc1cccc(C(F)(F)F)c1)c1ccc(Cl)cc1 (racemic) [(±)Analog 35] | – | significantly lowered plasma glucose concentrations at 30 and 54 hours | 319.6 ± 26.7 | 276.8 ± 17.6 | 286.2 ± 31.5 | 387.0 ± 18.0 | – |
| CN(C)C(=O)COC(=O)C(Oc1cccc(C(F)(F)F)c1)c1ccc(Cl)cc1 (racemic) [(±)Analog 38] | – | significantly lowered plasma glucose concentrations at 6, 30 and 54 hours | 303.2 ± 18.2 | 245.6 ± 15.6 | 243.1 ± 10.6 | 329.4 ± 18.9 | – |
| O=C(O)C(Oc1ccc(C(F)(F)F)cn1)c1cccc(C(F)(F)F)c1 (stereo not shown) [Compound 100, (3-Trifluoromethyl-phenyl)-(5-trifluoromethyl-pyridin-2-yloxy)-acetic acid] | Lower | – | – | – | – | – | – |
| CCCCOC(=O)C(Oc1cccc(C(F)(F)F)c1)c1ccc(Cl)cc1 (racemic) [(±)Analog 33] | – | significantly lowered plasma glucose concentrations at 6 and 54 hours | 227.5 ± 13.2 | 298.0 ± 15.3 | 286.6 ± 9.9 | 292.0 ± 19.1 | – |
| CN(C)C(=O)COC(=O)C(Oc1cccc(C(F)(F)F)c1)c1ccc(Cl)cc1 (single isomer, unassigned; (-)) [(−)Analog 38] | – | – | – | – | – | – | plasma glucose concentrations vs vehicle [2, 7]: significantly reduced plasma glucose concentrations at 6 hours; Glucose 6 hours [2, 7]: 251.2 ± 23.6 mg/dL; Predose Glucose [2, 8]: 373.4 ± 16.1 mg/dL |
| O=C(NCCOC(=O)C(Oc1cccc(C(F)(F)F)c1)c1ccc(Cl)cc1)c1ccccc1 (racemic) [(±)Analog 36] | – | significantly lowered plasma glucose concentrations at 30 and 54 hours | 300.5 ± 27.3 | 249.7 ± 8.6 | 272.2 ± 18.4 | 329.7 ± 17.6 | – |
| O=C(NCCOC(=O)C(Oc1cccc(C(F)(F)F)c1)c1ccc(Cl)cc1)c1ccccc1 (single isomer, unassigned; (-)) [(−)Analog 36] | – | – | – | – | – | – | plasma glucose concentrations vs vehicle [2, 7]: significantly reduced plasma glucose concentrations at 6 hours; Glucose 6 hours [2, 7]: 281.1 ± 18.2 mg/dL; Predose Glucose [2, 8]: 373.2 ± 15.5 mg/dL |
